From article PMC5929447 (Oncotarget, 2018)

Assays:
[1] = test system: BCL-2-dependent FL5.12 cells; test: Apoptosis (annexin V/PI) in FL5.12 cells expressing BCL-2 upon IL-3 withdrawal; format: cell-based, murine; conditions: 24 h upon IL-3 withdrawal
RS4;11 xenograft = RS4;11 xenograft efficacy; format: in vivo, mice; conditions: for Mean TV change: day 17, mean ± s.e.m.; for % T/C: day 17 post treatment start
Description: Experiments were performed in SCID/beige female mice from Charles River Laboratories, Massachusetts, USA. Animals, approximately 7-8 weeks of age at the start of the treatment were allowed to acclimate in animal facility with access to food and water ad libitum for 3 days prior to manipulation. Animals were handled in accordance with IACUC regulations and guidelines for experiments performed in the USA and with European and French regulation for the protection of vertebrate animals for experiments performed in France. Animal well-being and behavior, including grooming and ambulation were monitored at least once a day. General health of mice was monitored and mortality recorded daily. Any moribund animals were sacrificed. RS4;11 Acute Lymphoblastic Leukemia cell lines was obtained from ATCC. Toledo (Diffuse Large B-Cell Lymphoma) human cell lines were obtained internally through Bioresources and the Novartis-Cancer Cell Line Encyclopedia. Cells were free of Mycoplasma and murine viral contamination in the IMPACT VIII PCR assay panel ([…] laboratories INC, Westbrook, ME, USA). […] Cells were resuspended in a 1:1 mixture of cold DPBS (Dulbecco's Phosphate-Buffered Saline) and Matrigel^TM (Becton-Dickinson #354234) at a concentration of 3 × 10^7 cells/ml for Toledo cells, and of 1 × 10^7 cells/ml for RS4;11 cells. […] Body weights were recorded and tumors were measured with digital calipers twice to three times a week. Tumor volume was calculated using the formula: length × width^2/2. Percent changes in body weights was calculated as (BWcurrent - BWinitial)/(BWinitial) × 100. Data is presented as percent body weight change from the day of treatment initiation. When tumors reached approximately 200 mm^3 for efficacy studies or 300 mm^3 for pharmacodynamic studies, mice were randomized. […] Mice were treated via oral gavage at 10 ml/kg with the doses and schedules described in the figure. […] Regression = 100 × ΔT/Tinitial if ΔT < 0 where: T = mean tumor burden of the drug-treated group on the final day of the study; ΔT = mean tumor burden of the drug-treated group on the final day of the study - mean tumor burden of the drug-treated group on initial day of dosing; Tinitial = mean tumor burden of the drug-treated group on initial day of dosing; C = mean tumor burden of the control group on the final day of the study; and ΔC = mean tumor burden of the control group on the final day of the study - mean tumor burden of the control group on initial day of dosing. If the tumor volume was less than 14 mm^3 for more than 3 consecutive measurements, animals were considered in complete regression (CR).

Toledo xenograft = Toledo xenograft efficacy; format: in vivo, mice; conditions: day 21; for Mean TV change: mean ± s.e.m.
Description: Experiments were performed in SCID/beige female mice from Charles River Laboratories, Massachusetts, USA. Animals, approximately 7-8 weeks of age at the start of the treatment were allowed to acclimate in animal facility with access to food and water ad libitum for 3 days prior to manipulation. Animals were handled in accordance with IACUC regulations and guidelines for experiments performed in the USA and with European and French regulation for the protection of vertebrate animals for experiments performed in France. Animal well-being and behavior, including grooming and ambulation were monitored at least once a day. General health of mice was monitored and mortality recorded daily. Any moribund animals were sacrificed.
RS4;11 Acute Lymphoblastic Leukemia cell lines was obtained from ATCC. Toledo (Diffuse Large B-Cell Lymphoma) human cell lines were obtained internally through Bioresources and the Novartis-Cancer Cell Line Encyclopedia. Cells were free of Mycoplasma and murine viral contamination in the IMPACT VIII PCR assay panel (IDEXX RADIL, IDEXX laboratories INC, Westbrook, ME, USA). Cells used for subcutaneous implantation were cultured in RPMI plus 10% FBS at 37° C in a humidified atmosphere containing 5% carbon dioxide). […] Cells were resuspended in a 1:1 mixture of cold DPBS (Dulbecco's Phosphate-Buffered Saline) and Matrigel™ (Becton-Dickinson #354234) at a concentration of 3 × 10^7 cells/ml for Toledo cells, and of 1 × 10^7 cells/ml for RS4;11 cells.
For each experiment, female SCID/beige mice were implanted subcutaneously (right axillary region) with 3 × 10^6 Toledo or RS4;11 (1 × 10^6 cells for efficacy studies and 1 × 10^7 cells for pharmacodynamics studies) suspended in 1:1 mixture of cold DPBS and Matrigel™ in a total volume of 100 μl. Body weights were recorded and tumors were measured with digital calipers twice to three times a week. Tumor volume was calculated using the formula: length × width^2/2. Percent changes in body weights was calculated as (BWcurrent - BWinitial)/(BWinitial) × 100. Data is presented as percent body weight change from the day of treatment initiation.
When tumors reached approximately 200 mm^3 for efficacy studies or 300 mm^3 for pharmacodynamic studies, mice were randomized. […] Mice were treated via oral gavage at 10 ml/kg with the doses and schedules described in the figure.
For efficacy studies, percent treatment/control (T/C) values were calculated using the following formula: %T/C = 100 × ΔT/ΔC if ΔT > 0. Regression = 100 × ΔT/Tinitial if ΔT < 0 where: T = mean tumor burden of the drug-treated group on the final day of the study; ΔT = mean tumor burden of the drug-treated group on the final day of the study – mean tumor burden of the drug-treated group on initial day of dosing; Tinitial = mean tumor burden of the drug-treated group on initial day of dosing; C = mean tumor burden of the control group on the final day of the study; and ΔC = mean tumor burden of the control group on the final day of the study – mean tumor burden of the control group on initial day of dosing. If the tumor volume was less than 14 mm^3 for more than 3 consecutive measurements, animals were considered in complete regression (CR).

BCL-XL/BAX complex = BCL-XL/BAX complex (Homo sapiens, UniProt Q07817); test: Co-immunoprecipitation in BCL-XL-overexpressing HeLa cells; conditions: 2 h
Description: Effecten reagent (Qiagen), with 3xFlag-tagged BCL-XL
24 h later, transfected Hela and RS4;11
were put under neomycin selection (800 µg/ml, Invitrogen) were then subjected to immunoprecipitation with anti-

[2] = 100 mg/kg oral daily for 7 days
[3] = 200 mg/kg oral five times a week for 3 weeks
[4] = 300 mg/kg oral five times a week for 3 weeks

Sequence of BCL-XL/BAX complex (Q07817 whole entry, one chain of several): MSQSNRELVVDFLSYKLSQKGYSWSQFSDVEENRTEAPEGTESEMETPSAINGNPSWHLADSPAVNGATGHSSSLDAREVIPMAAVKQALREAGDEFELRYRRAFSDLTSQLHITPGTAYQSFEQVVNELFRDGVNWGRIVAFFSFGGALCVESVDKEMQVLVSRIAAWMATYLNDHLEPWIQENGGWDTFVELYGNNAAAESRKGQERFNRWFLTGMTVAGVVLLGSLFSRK

SMILES: O=C(c1cc(-c2cc3c(cc2C(=O)N2Cc4ccccc4C[C@H]2CN2CCOCC2)OCO3)n2c1CCCC2)N(c1ccccc1)c1ccc(O)cc1 [S55746]
- apoptosis induction (PS+ cells) in BCL-2-dependent FL5.12 cells [1]: strongly induce apoptosis
- Mean TV change (RS4;11 xenograft; 25 mg/kg oral daily for 7 days): 782.38 ± 107.32 mm3
- % T/C (RS4;11 xenograft; 25 mg/kg oral daily for 7 days): 67.1 % T/C
- Mean TV change (RS4;11 xenograft; 50 mg/kg oral daily for 7 days): 190.50 ± 76.72 mm3
- % T/C (RS4;11 xenograft; 50 mg/kg oral daily for 7 days): 16.3 % T/C
- complete regression (RS4;11 xenograft; [2]): complete regression observed in all animals
- Mean TV change (RS4;11 xenograft; [2]): –98.13 ± 11.62 mm3
- % T/C (Toledo xenograft; [3]): 13 % T/C
- Mean TV change (Toledo xenograft; [3]): 239.03 ± 67.97 mm3
- % T/C (Toledo xenograft; [4]): 2 % T/C
- Mean TV change (Toledo xenograft; [4]): 33.16 ± 37.38 mm3
- effect on BCL-XL/BAX complex in BCL-XL-overexpressing HeLa cells (BCL-XL/BAX complex): without any significant effect on the BCL-XL/BAX complex
